Experimental data: PubChem BioAssay AID248 (DTP/NCI, 2004)
Inconclusive results and toxic doses are left out. Rule as the data show it: active = T/C of 150% or more; inactive = T/C below 125%.

Tested on: L1210 leukemia ip in BDF1 mice, survival T/C
Assay: NCI In Vivo Anticancer Drug Screen. Data for tumor model L1210 Leukemia (intraperitoneal) in B6D2F1 (BDF1) mice
Conditions: endpoint: mean survival time, higher = longer survival
Summary of the method: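 Antitumor effect is assessed in tumor-bearing animals. Survival in the compound arm is compared with a vehicle-dosed control arm and expressed as their quotient.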

Measured: T/C

CC1=CC(=O)N(NC(N)=O)C1=O
inactive: dose: 100.0 mg/kg/injection, schedule: Q04DX003 (ip), vehicle: saline with Tween-80 94 % of control | dose: 200.0 mg/kg/injection, schedule: Q01DX009 (ip), vehicle: saline with Tween-80 90 % of control | dose: 200.0 mg/kg/injection, schedule: Q04DX003 (ip), vehicle: saline with Tween-80 102 % of control | dose: 400.0 mg/kg/injection, schedule: Q04DX003 (ip), vehicle: saline with Tween-80 105 % of control

CCC(=O)Oc1ccc(/C=N/NC(N)=S)nc1
inactive: dose: 100.0 mg/kg/injection, schedule: Q04DX002 (ip), vehicle: saline with Tween-80 113 % of control

CN1CCN(C(=S)[S-])CC1.CN1CCN(C(=S)[S-])CC1.[Zn]
inactive: dose: 2.5 mg/kg/injection, schedule: Q01DX009 (ip), vehicle: acetone 96 % of control | dose: 5.0 mg/kg/injection, schedule: Q01DX009 (ip), vehicle: acetone 96 % of control | dose: 5.0 mg/kg/injection, schedule: Q04DX003 (ip), vehicle: acetone 100 % of control | dose: 10.0 mg/kg/injection, schedule: Q01DX001 (ip), vehicle: saline 91 % of control | dose: 10.0 mg/kg/injection, schedule: Q01DX009 (ip), vehicle: acetone 108 % of control | dose: 10.0 mg/kg/injection, schedule: Q04DX003 (ip), vehicle: acetone 92 % of control | dose: 20.0 mg/kg/injection, schedule: Q01DX001 (ip), vehicle: saline 91 % of control | dose: 20.0 mg/kg/injection, schedule: Q04DX003 (ip), vehicle: acetone 92 % of control

COCc1c(C)cc(C)cc1C
inactive: dose: 50.0 mg/kg/injection, schedule: Q01DX001 (ip), vehicle: saline 91 % of control | dose: 100.0 mg/kg/injection, schedule: Q01DX001 (ip), vehicle: saline 107 % of control | dose: 200.0 mg/kg/injection, schedule: Q01DX001 (ip), vehicle: saline 103 % of control | dose: 400.0 mg/kg/injection, schedule: Q01DX001 (ip), vehicle: saline 113 % of control

Cc1ccc(C)n1CCn1c(C)ccc1C
inactive: dose: 100.0 mg/kg/injection, schedule: Q01DX009 (ip), vehicle: Klucel (hydroxypropylcellulose) (HPC) 91 % of control | dose: 100.0 mg/kg/injection, schedule: Q04DX002 (ip), vehicle: Klucel (hydroxypropylcellulose) (HPC) 88 % of control | dose: 200.0 mg/kg/injection, schedule: Q01DX009 (ip), vehicle: Klucel (hydroxypropylcellulose) (HPC) 94 % of control | dose: 200.0 mg/kg/injection, schedule: Q04DX002 (ip), vehicle: Klucel (hydroxypropylcellulose) (HPC) 93 % of control | dose: 400.0 mg/kg/injection, schedule: Q01DX009 (ip), vehicle: Klucel (hydroxypropylcellulose) (HPC) 91 % of control | dose: 400.0 mg/kg/injection, schedule: Q04DX002 (ip), vehicle: Klucel (hydroxypropylcellulose) (HPC) 96 % of control
